In patent US20050244328A1 (priority 2002, published 2005):
Values joined by “and” are separate entries in the source; they are usually repeats but may differ in a detail not shown here. Equal values may be shown once. Read-outs that look alike come from different tables or passages of the source.

Legend:
Mysidopsis bahia = assay: 96-hour bioassay of ClO2 treated side stream effluent, Independent Bioassay Laboratory A, mysid shrimp; type: in vivo; settings: end of 96-hour test period; ClO2 treated side stream effluent grabs Sep. 3, 2001 12:00, 18:00, 24:00, Sep. 4, 2001 06:00
Text: Mysidopsis bahia (Mysids) and Menidia beryllina (Silversides) were subjected to ClO2 treated effluent in these tests. Adequate volumes of chemical were brought to the site to conduct a dosing of the side stream for a 24-hour period. During this period, 2 gallons of treated water were taken at 6-hour intervals, preserved on ice and shipped to an independent bioassay laboratory (designated Independent Bioassay Laboratory A).
Table 3(c) illustrates the survivability of the organisms at the 96-hour end-point in the test for each of the 4 samples taken (samples indicated by date and time each sample was taken.).

Lactobacillus Brevis = settings: contact time 300 s, cited from earlier work
Streptococcus = settings: 1 ppm of ClO2; contact time 15 s; cited from earlier work
Fecal Coliform = assay: Fecal coliform kill in ClO2-dosed post clarifier effluent, side stream pilot at WWTP 1 (Membrane Filter SM 9222D)
Silversides = assay: In-house silverside bioassay of ClO2 treated effluent; type: in vivo, Menidia beryllina; settings: numerous in-house tests, WWTP 1
Staphylococcus aureus = settings: 1 ppm of ClO2; contact time 60 s; cited from earlier work

For Chlorine dioxide [ClO2], the “Percent Survival Mysid bahia” value (Mysidopsis bahia) is given as 0%, the Inactivation in % (Lactobacillus Brevis; 0.15 ppm of ClO2) is given as 99.9% and the Inactivation in % (Lactobacillus Brevis; 1 ppm of ClO2) is given as >99.999%. For the same substance, the Inactivation in % (Streptococcus) was >99.999%, the “Fecal Coliform” value (Fecal Coliform; 1.8 ppm, 5 min contact, pH 7.20, Feb. 6, 2001) was <1 #cfu/100 mls and the “Fecal Coliform” value (Fecal Coliform; 1.8 ppm, 5 min contact, pH 7.20, Feb. 7, 2001) was <1 #cfu/100 mls. For the same substance, the “Fecal Coliform” value (Fecal Coliform; 2.23 ppm, 5 min contact, pH 7.20, Feb. 6, 2001) was <1 #cfu/100 mls, the “Fecal Coliform” value (Fecal Coliform; 2.23 ppm, 5 min contact, pH 7.20, Feb. 7, 2001) was <1 #cfu/100 mls and the “Fecal Coliform” value (Fecal Coliform; 3.0 ppm, 5 min contact, pH 7.20, Feb. 6, 2001) was <1 #cfu/100 mls. For the same substance, the “Fecal Coliform” value (Fecal Coliform; 3.0 ppm, 5 min contact, pH 7.20, Feb. 7, 2001) was <1 #cfu/100 mls, the “Fecal Coliform” value (Fecal Coliform; 3.97 ppm, 5 min contact, pH 7.20, Feb. 6, 2001) was <1 #cfu/100 mls and the “Fecal Coliform” value (Fecal Coliform; 3.97 ppm, 5 min contact, pH 7.20, Feb. 7, 2001) was <1 #cfu/100 mls. The “Fecal Coliform” value (Fecal Coliform; 5% chlorite solution, ClO2 dose rate 3.0 mg/ltr, 5 minute contact, Jan. 24, 2001) was <1 #cfu/100 mls, the “Fecal Coliform” value (Fecal Coliform; 5.0 ppm, 5 min contact, pH 7.20, Feb. 6, 2001) was <1 #cfu/100 mls and the “Fecal Coliform” value (Fecal Coliform; 5.0 ppm, 5 min contact, pH 7.20, Feb. 7, 2001) was <1 #cfu/100 mls. The “Fecal Coliform” value (Fecal Coliform; Injector 1.8 ppm, 5 min contact, pH 7.30, Feb. 5, 2001) was <1 #cfu/100 mls, the “Fecal Coliform” value (Fecal Coliform; Injector 2.23 ppm, 5 min contact, pH 7.30, Feb. 5, 2001) was <1 #cfu/100 mls and the “Fecal Coliform” value (Fecal Coliform; Injector 3.0 ppm, 5 min contact, pH 7.30, Feb. 5, 2001) was <1 #cfu/100 mls. The “Fecal Coliform” value (Fecal Coliform; Injector 3.97 ppm, 5 min contact, pH 7.30, Feb. 5, 2001) was <1 #cfu/100 mls, the “Fecal Coliform” value (Fecal Coliform; Injector 5.0 ppm, 5 min contact, pH 7.30, Feb. 5, 2001, (*) bits of algae in samples) was 1 (*) #cfu/100 mls and <1 #cfu/100 mls and the “dosing rate at which fecal coliform kills were also achieved (as low as)” value (Fecal Coliform; further testing) was 0.075 ppm. The fecal coliform kill (Fecal Coliform; lower dosing rate of 1.8 ppm) was “effectively killed”, the “time required for a complete fecal kill” value (Fecal Coliform; lower dosing rates) was “more than 2 minutes” and the “survival of Silversides post CLO2 dosing” value (Silversides) was “always survived”. For the same substance, the Inactivation in % (Staphylococcus aureus) was 99.999%.
